According to patent US10189796B2, “[4-(1,3,3-trimethyl-2-oxo-3,4-dihydro-1H-quinoxalin-7-yl)phenoxy]ethyloxy compound or salt thereof” (SANTEN PHARMACEUTICAL CO., LTD., priority 2015, dated 2019):

Columns and labels:
[1] = system: VEGF-induced retinal elevated vascular permeability model of rabbits; assay: Retinal vascular permeability model evaluation test; type: in vivo, rabbit; details: 2% 50 μL/base agent A, intravitreal once
Method: In order to evaluate the inhibitory effect of the present compounds on VEGF-induced retinal vascular permeability, the inhibitory effect of the present compound on retinal vascular permeability in a VEGF-induced retinal elevated vascular permeability model of rabbits was evaluated. Incidentally, this effect was evaluated by calculating a leaked amount of the fluorescent dye of the base agent administered group (non-induced group), a leaked amount of the fluorescent dye of the base agent administered group (control group) and a leaked amount of the fluorescent dye of the test compound administered group.
To the test compound was added 0.01% Polysorbate 80/0.5% sodium carboxymethyl cellulose/PBS (hereinafter referred to as “base agent A”.), whereby 2% (W/V) or 8% (W/V) of the test compound suspension was prepared. Or else, to the test compound was added PEG400 (hereinafter referred to as “base agent B”.), whereby 6% (W/W) of the test compound solution was prepared.
VEGF solution: humanVEGF165 was dissolved in PBS to prepare 50 μg/mL of VEGF solution.
• 1) A mixed solution (1 mL/kg) of 5% ketamine hydrochloride injection solution and 2% xylazine hydrochloride injection solution with the ratio of 7:1 was intramuscularly administered to rabbits (Dutch male rabbits), and the rabbits were anesthetized. • 2) Tropicamide-phenylephrine hydrochloride ophthalmic solution (trade name: Midlin P) was eye dropped to maintain pupillary mydriasis, and then, the VEGF solution was intravitreally administered. Incidentally, PBS was intravitreally administered to the base agent administration group (non-induced group). • 3) Fluorescein was intravenously administered 2 days after intravitreal administration of VEGF. Two hours after the intravenous administration of fluorescein, an amount of the leaked fluorescent dye in the vitreous body was measured by using a fluorophotometer. (Test Method) • 1) One week before or 4 weeks before VEGF-induction, 50 μL of the test compound suspension (prepared by the base agent A) was intravitreally administered once, or 5 μL of the test compound solution (prepared by the base agent B) was intravitreally administered once. Incidentally, in the base agent administered group (non-induced group) and the base agent administered group (control group), the base agent A was used in place of the test compound suspension, or the base agent B was used in place of the test compound solution. • 2) Inhibition ratio of elevated retinal vascular permeability was calculated according to the following calculation formula. (Calculation Formula) Inhibitory ratio (%) on elevated retinal vascular permeability of the test compound administered group=100×{1−(average value of a leaked fluorescent dye amount in the test compound administered group−average value of a leaked fluorescent dye amount in the base agent administered group (non-induced group))/(average value of a leaked fluorescent dye amount in the base agent administered group (control group)−average value of a leaked fluorescent dye amount of the base agent administered group (non-induced group))}

[2] = system: MCP-1 production in human monocyte cell (THP-1); assay: MCP-1 production inhibitory action evaluation test (LPS stimulation, ELISA); type: cell-based; details: THP-1, LPS, 18 hours
Method: In order to evaluate an action of the present compound as a GR agonist, an MCP-1 production inhibitory action in human monocyte cell after stimulation by LPS was investigated. For the measurement of the MCP-1 production amount in the sample, the ELISA method (manufactured by R&D Systems, Cat No. DCP00) was used, and a procedure was carried out according to the protocol attached thereto. Hereinafter, the specific method will be described.
LPS solution: After LPS was dissolved in PBS(−), the solution was diluted with 10% FBS-containing RPMI 1640 to prepare an LPS solution with a 40 μg/mL concentration.
After the test compound was dissolved in dimethylsulfoxide, the solution was diluted with an RPMI medium to prepare 400 μM of a test compound solution. The solution was diluted with a 4% dimethylsulfoxide-containing RPMI 1640 medium to prepare 40 μM of a test compound solution.
Used cells: human monocyte cell (THP-1) (ATCC)
• 1) Subcultured THP-1 was recovered and centrifuged at 1,100 rpm for 5 minutes to give a cell sediment. • 2) An RPMI medium (RPMI 1640 containing 10% FBS, 100 U/mL of penicillin, 100 μg/mL of streptomycin, 55 μM of 2-Mercaptoethanol, 10 ng/mL of human EGF, and 40 μg/mL of gentamicin) was added. • 3) The above suspension was seeded in a culture flask and cultured in a CO2 incubator (temperature: 37° C., CO2 concentration: 5%). The cells continued to subculture according to this method were used for the test. (Test Method and Measurement Method) • 1) The subcultured THP-1 was recovered and the cells were each seeded at 1.9×10^5 cells/0.19 mL/well in a 96-well round bottom culture plate. • 2) The test compound solution was added with each 5 μL/well and cultured for 2 hours. • 3) LPS solution was added with each 5 μL/well. • 4) The sample to which 4% dimethylsulfoxide-containing RPMI medium was added with each 5 μL/well in place of each test compound solution, and 10% FBS-RPMI 1640 was added with each 5 μL/well in place of the LPS solution was made a negative control. • 5) The sample to 4% dimethylsulfoxide-containing RPMI medium was added with each 5 μL/well in place of each test compound solution was made a positive control. • 6) After completion of 18 hours cultivation, the supernatant was recovered and the amount of MCP-1 released in the supernatant was measured by using an ELISA Kit. • 7) The MCP-1 production inhibitory ratio was calculated according to the following calculation formula. (Calculation of MCP-1 Production Inhibitory Ratio)
MCP-1 production inhibitory ratio (%) was calculated by the following formula. […]

Q: What does the source list for `COc1cc(OC[C@@H](O)CC#N)ccc1-c1ccc2c(c1COc1cc(F)ccc1C)N(C)C(=O)C(C)(C)N2` [Compound 5-2, (S)-7-[4-(3-cyano-2-hydroxypropyl)oxy-2-methoxyphenyl]-8-(5-fluoro-2-methyl-phenoxymethyl)-1,3,3-trimethyl-3,4-dihydro-1H-quinoxalin-2-one]?
A: Inhibitory ratio (%) on elevated vascular permeability ([1]; 1 week before VEGF induction): 96%; Inhibitory ratio (%) on elevated vascular permeability ([1]; 4 weeks before VEGF induction): 91%

Q: With `COc1cc(OC[C@H](C)OC(=O)CN(C)C)ccc1-c1ccc2c(c1COc1cc(F)ccc1C)N(C)C(=O)C(C)(C)N2` [Compound 11-1, (S)-7-[4-[2-(N,N-dimethylaminoacetoxy)propyl]oxy-2-methoxyphenyl]-8-(5-fluoro-2-methylphenoxymethyl)-1,3,3-trimethyl-3,4-dihydro-1H-quinoxalin-2-one] as the molecule, how does the “MCP-1 production inhibitory ratio (% of 1 μM)” value [2] read?
A: 88%

Q: With `COc1ccc(O)cc1-c1ccc2c(c1COc1cc(F)ccc1C)N(C)C(=O)C(C)(C)N2` [Control compound C, 8-(5-fluoro-2-methylphenoxymethyl)-7-(5-hydroxy-2-methoxyphenyl)-1,3,3-trimethyl-3,4-dihydro-1H-quinoxalin-2-one] as the molecule, how does the “MCP-1 production inhibitory ratio (% of 1 μM)” value [2] read?
A: 65%

Q: For `CCCC(=O)Oc1ccc(-c2ccc3c(c2COc2cc(F)ccc2C)N(C)C(=O)C(C)(C)N3)c(OC)c1` [Control compound D, 7-(4-butyryloxy-2-methoxyphenyl)-8-(5-fluoro-2-methylphenoxymethyl)-1,3,3-trimethyl-3,4-dihydro-1H-quinoxalin-2-one, reference compound], which “Inhibitory ratio (%) on elevated vascular permeability” value ([1]; 4 weeks before VEGF induction) is on record?
A: 38%

Q: Which “Inhibitory ratio (%) on elevated vascular permeability” value ([1]; 1 week before VEGF induction) does the source give for `COc1ccc(-c2ccc3c(c2COc2cc(F)ccc2C)N(C)C(=O)C(C)(C)N3)c(OC)c1` [Control compound E, 7-(2,4-dimethoxyphenyl)-8-(5-fluoro-2-methyl-phenoxymethyl)-1,3,3-trimethyl-3,4-dihydro-1H-quinoxalin-2-one, reference compound] here?
A: 47%

Q: And the “MCP-1 production inhibitory ratio (% of 1 μM)” value [2]?
A: 40%

Q: `COCOc1ccc(-c2ccc3c(c2COc2cc(F)ccc2C)N(C)C(=O)C(C)(C)N3)c(OC)c1` [Control compound F, 8-(5-fluoro-2-methylphenoxymethyl)-7-(2-methoxy-4-methoxymethoxyphenyl)-1,3,3-trimethyl-3,4-dihydro-1H-quinoxalin-2-one, reference compound] was tested. Which “MCP-1 production inhibitory ratio (% of 1 μM)” value [2] did it give?
A: 27%
